“And” between values parts separate entries of the source, which are not always exact repeats. Equal entries are not always repeated. Toxic doses and inconclusive results are not listed.

The test system of the assay is AKR/Lw mice, AKR lymphoma ip, median survival T/C. Briefly: NCI In Vivo Anticancer Drug Screen. Data for tumor model Lymphoma AKR (Transplanted) (intraperitoneal) in AKR/Lw mice. The settings on record: endpoint: median survival time, higher = longer survival. As to the method: The antitumor activity of compounds was measured in mice bearing transplantable tumors. Survival or tumor size were measured and the results are expressed as the measurement made in the treated group (T) divided by the measurement made in the vehicle treated control group (C). The tumor model used in this assay is Lymphoma AKR (Transplanted) (intraperitoneal) in AKR/Lw mice

Take `O=NN(CCCl)C(=O)NCCCl`: the T/C was 105 % of control (dose: 0.12 mg/kg/injection, schedule: Q01DX009 (ip), vehicle: saline); 87 % of control and 107 % of control (dose: 0.25 mg/kg/injection, schedule: Q01DX009 (ip), vehicle: saline); 90 % of control and 97 % of control (dose: 0.25 mg/kg/injection, schedule: Q04DX003 (ip), vehicle: saline); 96 % of control (dose: 0.5 mg/kg/injection, schedule: Q04DX004 (ip), vehicle: saline); 108 % of control and 112 % of control (dose: 1.0 mg/kg/injection, schedule: Q04DX004 (ip), vehicle: saline); 107 % of control (dose: 1.5 mg/kg/injection, schedule: Q04DX003 (ip), vehicle: saline). Besides, the T/C is, setting by setting: (dose: 1.5 mg/kg/injection, schedule: Q07DX003 (ip), vehicle: saline) 87 % of control and 118 % of control; (dose: 2.5 mg/kg/injection, schedule: Q04DX003 (ip), vehicle: saline) 93 % of control; (dose: 3.0 mg/kg/injection, schedule: Q01DX001 (ip), vehicle: saline) 100 % of control and 114 % of control; (dose: 3.0 mg/kg/injection, schedule: Q01DX009 (ip), vehicle: saline) 87 % of control; (dose: 3.0 mg/kg/injection, schedule: Q04DX003 (ip), vehicle: saline) 86 % of control; (dose: 3.0 mg/kg/injection, schedule: Q07DX003 (ip), vehicle: saline) 109 % of control and 121 % of control. Besides, the T/C runs as follows: (dose: 3.13 mg/kg/injection, schedule: Q04DX003 (ip), vehicle: water) 98 % of control; (dose: 3.75 mg/kg/injection, schedule: Q01DX001 (ip), vehicle: saline) 117 % of control; (dose: 4.0 mg/kg/injection, schedule: Q04DX004 (ip), vehicle: saline) 153 % of control; (dose: 5.0 mg/kg/injection, schedule: Q01DX001 (ip), vehicle: saline) 93 % of control and 100 % of control and 103 % of control; (dose: 5.0 mg/kg/injection, schedule: Q01DX009 (ip), vehicle: saline) 333 % of control; (dose: 5.0 mg/kg/injection, schedule: Q04DX003 (ip), vehicle: saline) 103 % of control. The T/C reads like this: (dose: 5.0 mg/kg/injection, schedule: Q10DX004 (ip), vehicle: saline) 103 % of control; (dose: 6.0 mg/kg/injection, schedule: Q04DX003 (ip), vehicle: saline) 97 % of control; (dose: 6.0 mg/kg/injection, schedule: Q07DX003 (ip), vehicle: saline) 100 % of control and 118 % of control; (dose: 6.2 mg/kg/injection, schedule: Q01DX001 (ip), vehicle: saline) 106 % of control; (dose: 6.25 mg/kg/injection, schedule: Q04DX003 (ip), vehicle: water) 124 % of control; (dose: 7.5 mg/kg/injection, schedule: Q01DX001 (ip), vehicle: saline) 118 % of control. In addition, the T/C reads like this: (dose: 8.0 mg/kg/injection, schedule: Q04DX004 (ip), vehicle: saline) 171 % of control; (dose: 10.0 mg/kg/injection, schedule: Q01DX009 (ip), vehicle: saline) 97 % of control; (dose: 10.0 mg/kg/injection, schedule: Q04DX003 (ip), vehicle: saline) 106 % of control; (dose: 10.0 mg/kg/injection, schedule: Q10DX004 (ip), vehicle: saline) 111 % of control; (dose: 10.0 mg/kg/injection, schedule: Q14DX003 (ip), vehicle: saline) 123 % of control; (dose: 12.5 mg/kg/injection, schedule: Q01DX001 (ip), vehicle: saline) 118 % of control. For the same molecule, the T/C is 88 % of control (dose: 12.5 mg/kg/injection, schedule: Q04DX003 (ip), vehicle: water); 113 % of control (dose: 15.0 mg/kg/injection, schedule: Q10DX004 (ip), vehicle: saline); 98 % of control (dose: 15.0 mg/kg/injection, schedule: Q14DX003 (ip), vehicle: saline); 97 % of control (dose: 16.0 mg/kg/injection, schedule: Q01DX009 (ip), vehicle: saline); 168 % of control (dose: 16.0 mg/kg/injection, schedule: Q04DX004 (ip), vehicle: saline); 97 % of control (dose: 20.0 mg/kg/injection, schedule: Q01DX009 (ip), vehicle: saline). In addition, the T/C is, setting by setting: (dose: 20.0 mg/kg/injection, schedule: Q10DX004 (ip), vehicle: saline) 101 % of control; (dose: 20.0 mg/kg/injection, schedule: Q14DX003 (ip), vehicle: saline) 115 % of control; (dose: 24.0 mg/kg/injection, schedule: Q01DX001 (ip), vehicle: saline) 86 % of control; (dose: 25.0 mg/kg/injection, schedule: Q04DX003 (ip), vehicle: water) 108 % of control; (dose: 32.0 mg/kg/injection, schedule: Q04DX004 (ip), vehicle: saline) 103 % of control; (dose: 45.0 mg/kg/injection, schedule: Q01DX001 (ip), vehicle: saline) 54 % of control and 95 % of control. Besides, the T/C (dose: 60.0 mg/kg/injection, schedule: Q01DX001 (ip), vehicle: saline) is 23 % of control and 86 % of control.

For `CC12CCCC(=O)C1CC/C(=C\c1ccco1)C2=O` (stereo unspecified), the T/C reads like this: (dose: 100.0 mg/kg/injection, schedule: Q01DX001 (ip), vehicle: saline) 109 % of control; (dose: 200.0 mg/kg/injection, schedule: Q01DX001 (ip), vehicle: saline) 100 % of control; (dose: 400.0 mg/kg/injection, schedule: Q01DX001 (ip), vehicle: saline) 100 % of control.

On to `CN(CCOc1ccccc1O)CCOc1ccccc1O`, for which the T/C is, setting by setting: (dose: 100.0 mg/kg/injection, schedule: Q01DX001 (ip), vehicle: Klucel (hydroxypropylcellulose) (HPC)) 105 % of control; (dose: 100.0 mg/kg/injection, schedule: Q04DX003 (ip), vehicle: Klucel (hydroxypropylcellulose) (HPC)) 100 % of control; (dose: 200.0 mg/kg/injection, schedule: Q01DX001 (ip), vehicle: Klucel (hydroxypropylcellulose) (HPC)) 107 % of control; (dose: 200.0 mg/kg/injection, schedule: Q04DX003 (ip), vehicle: Klucel (hydroxypropylcellulose) (HPC)) 92 % of control; (dose: 400.0 mg/kg/injection, schedule: Q01DX001 (ip), vehicle: Klucel (hydroxypropylcellulose) (HPC)) 105 % of control.

The record behind these values is PubChem BioAssay AID190 (DTP/NCI, 2004).
